Consider three compounds from patent US20240307383A1 (AstraZeneca AB, priority 2023, published 2024).

The subject of data set [1] is patients with type 2 diabetes and CKD. To be noted: post hoc analysis of the CREDENCE trial; cited from earlier work.
For data set [2], the system named is pregnant rabbits. To be noted: period of major embryonic organogenesis; cited from earlier work.
For data set [3] the following is noted: observations so far; cited from earlier work.
Data set [4] relates to patients having chronic kidney disease. Description: UACR change from baseline over 12 weeks (Example 3, FIG. 5). In kind it is in vivo, human. Particulars: dapagliflozin 10 mg alone; plateau over 12-week period; UACR>700 mg/g.
Data set [5] has the same test system. The data set is described as follows: Systolic blood pressure change from baseline, all participants (Example 3, FIG. 6, Table 10B). Type of data set: in vivo, human.
Data set [6] shares this test system. Description: Systolic blood pressure change from baseline, participants having UACR >700 mg/g (FIG. 7A, Table 11A). In kind it is in vivo, human. To be noted: for Systolic blood pressure, mean change from baseline: Dapa 10 mg + placebo, UACR >700 mg/g.
For data set [7] the test system is unchanged. Description: Diastolic blood pressure change from baseline, participants having UACR >700 mg/g (FIG. 7B, Table 11B). In kind it is in vivo, human. Particulars: for Diastolic blood pressure, mean change from baseline: Dapa 10 mg + placebo, UACR >700 mg/g.
Data set [8] concerns healthy volunteers and patients with type 2 diabetes. Particulars: cited from earlier work.
[9] abbreviates: dapagliflozin 10 mg + placebo, end of 12-week period, UACR>700 mg/g.

Like-named read-outs stand apart in the source and are kept apart here.

For the compound `Cc1ccc([C@@H]2O[C@H](CO)[C@@H](O)[C@H](O)[C@H]2O)cc1Cc1ccc(-c2ccc(F)cc2)s1` [canagliflozin], in data set [1], the “Effect on UACR levels” value is “failed to reduce UACR levels below 300 mg/g in a substantial number of patients”.

For the compound `COc1nc(C)cnc1NS(=O)(=O)c1cccnc1-c1ccc(-c2nnco2)cc1` [zibotentan, N-(3-methoxy-5-methylpyrazin-2-yl)-2-[4-(1,3,4-oxadiazol-2-yl)phenyl]pyridine-3-sulfonamide], in data set [2], the “Dose levels causing teratogenic effects” value was at least 1 mg/kg/day. For the same compound, the Hepatotoxicity result in data set [3] is “has not been observed”.

Take `CCOc1ccc(Cc2cc([C@@H]3O[C@H](CO)[C@@H](O)[C@H](O)[C@H]3O)ccc2Cl)cc1` [dapagliflozin, (1S)-1,5-anhydro-1-{4-chloro-3-[(4-ethoxyphenyl)methyl]phenyl}-D-glucitol]: the “Mean percent decrease of UACR from baseline” value in data set [4] is “approximately 20%”. In addition, the “Systolic blood pressure, mean change” value in data set [5] (Dapa 10 mg + placebo, all participants) is recorded as −3.4. Further, the “Decrease in systolic blood pressure from baseline” value in data set [5] (dapagliflozin 10 mg + placebo, 12-week period, all participants) worked out at 3.4%. Besides, in data set [5] (dapagliflozin 10 mg + placebo, week 14), the “Systolic blood pressure after final planned dose” value is reported as “returned to baseline levels”. For the same compound, the “Systolic blood pressure, mean change from baseline” value is −5.7 in data set [6] (Week 1); −6.1 in data set [6] (Week 3); −6.5 in data set [6] (Week 6); −2.9 in data set [6] (Week 9); −4.6 in data set [6] (Week 12). The “Mean reduction in systolic blood pressure from baseline” value in data set [6] (setting [9]) is “over 4%”. Also, the “Diastolic blood pressure, mean change from baseline” value in data set [7] (Week 1) is reported as −2.9; in data set [7] (Week 3), −2.4; in data set [7] (Week 6) it was −2.7; in data set [7] (Week 9), −2.0; in data set [7] (Week 12), −2.2. In data set [7] (setting [9]), the “Mean reduction in diastolic blood pressure relative to baseline” value is reported as “approximately 2%”. For the same compound, the Well tolerated dose result in data set [8] (repeat dose testing for 14 days in healthy volunteers and patients with type 2 diabetes) is recorded as “up to 100 mg/day”; in data set [8] (single dose testing in healthy volunteers), “up to 500 mg/day”.
